Drawing on US6716833B2, “Acetylenic α-amino acid-based sulfonamide hydroxamic acid tace inhibitors” (priority 1999, dated 2004), this text covers IC50 for 15 compounds.

The target of the first experiment is TNF-α converting enzyme (TACE) (Homo sapiens, UniProt P78536). The experiment can be described thus: TACE inhibition (fluorescent peptidyl substrate). Type of experiment: biochemical. The note with it: IC 50 nM (In Vitro Inhibition of TACE), Table 15.
TNF-α converting enzyme (TACE), sequence (P78536 215-824, species assumed): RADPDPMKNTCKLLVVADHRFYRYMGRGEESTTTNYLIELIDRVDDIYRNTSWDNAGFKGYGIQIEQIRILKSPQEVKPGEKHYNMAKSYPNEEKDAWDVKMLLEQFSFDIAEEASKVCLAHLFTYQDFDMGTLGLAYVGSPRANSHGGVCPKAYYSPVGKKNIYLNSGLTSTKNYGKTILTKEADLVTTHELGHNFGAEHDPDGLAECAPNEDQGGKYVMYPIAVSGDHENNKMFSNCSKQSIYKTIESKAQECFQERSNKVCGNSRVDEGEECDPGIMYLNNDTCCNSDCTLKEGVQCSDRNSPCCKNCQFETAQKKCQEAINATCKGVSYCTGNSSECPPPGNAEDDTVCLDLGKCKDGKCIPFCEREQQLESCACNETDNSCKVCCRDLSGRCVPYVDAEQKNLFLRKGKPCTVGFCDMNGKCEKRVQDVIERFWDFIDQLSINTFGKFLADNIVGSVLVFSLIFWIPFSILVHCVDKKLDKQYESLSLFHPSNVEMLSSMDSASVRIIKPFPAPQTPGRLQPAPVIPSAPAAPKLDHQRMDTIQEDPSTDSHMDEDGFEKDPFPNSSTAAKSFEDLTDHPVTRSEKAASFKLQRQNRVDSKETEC
`CC#CCOc1ccc(S(=O)(=O)N[C@H](CSCNC(C)=O)C(=O)NO)cc1` [Example 300, (2S)-3-{[(Acetylamino)methyl]thio}-2-({[4-(but-2-ynyloxy)phenyl]sulfonyl}amino)-N-hydroxypropanamide] displayed an IC50 of 11 nM.
The compound `CC#CCOc1ccc(S(=O)(=O)N[C@H](CSCc2ccc(C)cc2)C(=O)NO)cc1` [Example 301, (2S)-2-({[4-(But-2-ynyloxy)phenyl]sulfonyl}amino)-N-hydroxy-3-[(4-methylbenzyl)thio]propanamide] displayed an IC50 of 24.6 nM.
`CC#CCOc1ccc(S(=O)(=O)N[C@H](CCC(N)=O)C(=O)NO)cc1` [Example 303, (2R)-2-({[4-(But-2-ynyloxy)phenyl]sulfonyl}amino)-N-hydroxypentanediamide] registered an IC50 of 27.4 nM.
The compound `CC#CCOc1ccc(S(=O)(=O)N[C@H](CCC(=O)O)C(=O)NO)cc1` [Example 304, (4R)-4-({[4-(But-2-ynyloxy)phenyl]sulfonyl}amino)-5-(hydroxyamino)-5-oxopentanoic acid] registered an IC50 of 28.9 nM.
As for `CC#CCOc1ccc(S(=O)(=O)N[C@H](CCc2ccccc2)C(=O)NO)cc1` [Example 305, (2R)-2-({[4-(But-2-ynyloxy)phenyl]sulfonyl}amino)-N-hydroxy-4-phenylbutanamide], the IC50 is 13.4 nM.
With `CC#CCOc1ccc(S(=O)(=O)N[C@H](Cc2cnc[nH]2)C(=O)NO)cc1` [Example 306, (2R)-2-({[4-(But-2-ynyloxy)phenyl]sulfonyl}amino)-N-hydroxy-3-(1H-imidazol-5-yl)propanamide], the IC50 is 8.7 nM.
Regarding `CC#CCOc1ccc(S(=O)(=O)N2C[C@@H](O)C[C@@H]2C(=O)NO)cc1` [Example 307, (2R,4S)-1-{[4-(But-2-ynyloxy)phenyl]sulfonyl}-N,4-dihydroxypyrrolidine-2-carboxamide], the IC50 was 29.4 nM.
In the case of `CC#CCOc1ccc(S(=O)(=O)N[C@H](CCCCN)C(=O)NO)cc1` [Example 308, (2R)-6-Amino-2-({[4-(but-2-ynyloxy)phenyl]sulfonyl}amino)-N-hydroxyhexanamide], the IC50 was 29.5 nM.
The same measure, in the same setting: in the case of `CC#CCOc1ccc(S(=O)(=O)N[C@H](CCCCNC(=O)OCc2ccccc2)C(=O)NO)cc1` [Example 309, Benzyl(5R)-5-({[4-(but-2-ynyloxy)phenyl]sulfonyl}amino)-6-(hydroxyamino)-6-oxohexylcarbamate] it was 11.4 nM.
`CC#CCOc1ccc(S(=O)(=O)N[C@H](Cc2cccc3ccccc23)C(=O)NO)cc1` [Example 310, (2R)-2-({[4-(But-2-ynyloxy)phenyl]sulfonyl}amino)-N-hydroxy-3-(1-naphthyl)propanamide] had an IC50 of 27.9 nM.
The compound `CC#CCOc1ccc(S(=O)(=O)N[C@H](Cc2ccc3ccccc3c2)C(=O)NO)cc1` [Example 311, (2R)-2-({[4-(But-2-ynyloxy)phenyl]sulfonyl}amino)-N-hydroxy-3-(2-naphthyl)propanamide] returned an IC50 of 15.7 nM.
With `CC#CCOc1ccc(S(=O)(=O)N[C@H](CCCC)C(=O)NO)cc1` [Example 312, (2R)-2-({[4-(But-2-ynyloxy)phenyl]sulfonyl}amino)-N-hydroxyhexanamide], the IC50 was determined as 4.7 nM.
`CC#CCOc1ccc(S(=O)(=O)N[C@H](CCC)C(=O)NO)cc1` [Example 313, (2R)-2-({[4-(But-2-ynyloxy)phenyl]sulfonyl}amino)-N-hydroxypentanamide] displayed an IC50 of 6.3 nM.
`CC#CCOc1ccc(S(=O)(=O)N[C@H](CCCN)C(=O)NO)cc1` [Example 314, (2R)-5-Amino-2-({[4-(but-2-ynyloxy)phenyl]sulfonyl}amino)-N-hydroxypentanamide] had an IC50 of 25 nM.

Staying with this experiment, now noted: read-out: IC 50 nM (In Vitro Inhibition of TACE); Table 15.
Regarding `CC#CCOc1ccc(S(=O)(=O)N[C@H](Cc2ccc(F)c(F)c2)C(=O)NO)cc1` [Example 315, (2R)-2-({[4-(But-2-ynyloxy)phenyl]sulfonyl}amino)-3-(3,4-digluorophenyl)-N-hydroxypropanamide], the IC50 turned out to be 5.7 nM.
